Experimental data reported in ChEMBL document CHEMBL5257089, “Gamabufotalin Induces Apoptosis and Cytoprotective Autophagy through the mTOR Signaling Pathway in Hepatocellular Carcinoma” (J Nat Prod, 2023).
Calls of active or inactive are those of the source. No cut-off for these calls is given here.

Experiments:
Huh-7 [1] = test: Induction of apoptosis in human Huh-7 cells assessed as viable cells at 10 nM incubated for 48 hrs in presence of gamabufotalin by Annexin V-FITC/PI staining based flow cytometry method (reference value: 91.5%); assay type: functional; conditions: read-out: Activity
Huh-7 [2] = test: Induction of apoptosis in human Huh-7 cells assessed as early apoptotic cells at 10 nM incubated for 48 hrs in presence of gamabufotalin by Annexin V-FITC/PI staining based flow cytometry method (reference value: 2.8%); assay type: functional
Hep 3B2 [3] = test: Induction of apoptosis in human Hep3B cells assessed as increase in cleaved caspase-3 level at 10 nM incubated for 48 hrs in presence of gamabufotalin by immunoblot analysis; assay type: functional, cell-based
Hep 3B2 [4] = test: Induction of apoptosis in human Hep3B cells assessed as increase in caspase-3 level at 10 nM incubated for 48 hrs in presence of gamabufotalin by immunoblot analysis; assay type: functional, cell-based
Huh-7 [5] = test: Induction of apoptosis in human Huh-7 cells assessed as increase in cleaved PARP level at 10 nM incubated for 48 hrs in presence of gamabufotalin by immunoblot analysis; assay type: functional, cell-based
Huh-7 [6] = test: Induction of morphological changes in human Huh-7 cells assessed as round cell morphology at upto 25 nM incubated for 48 hrs by bright field imaging analysis; assay type: functional, cell-based
Hep 3B2 [7] = test: Induction of apoptosis in human Hep3B cells assessed as late apoptotic cells at 15 nM incubated for 48 hrs by Annexin V-FITC/PI staining based flow cytometry method (reference value: 2.6%); assay type: functional
Hep 3B2 [8] = test: Induction of apoptosis in human Hep3B cells assessed as late apoptotic cells at 20 nM incubated for 48 hrs by Annexin V-FITC/PI staining based flow cytometry method (reference value: 2.6%); assay type: functional
Huh-7 [9] = test: Induction of apoptosis in human Huh-7 cells assessed as necrotic cells at 15 nM incubated for 48 hrs by Annexin V-FITC/PI staining based flow cytometry method (reference value: 95.4%); assay type: functional
Huh-7 [10] = test: Induction of apoptosis in human Huh-7 cells assessed as necrotic cells at 20 nM incubated for 48 hrs by Annexin V-FITC/PI staining based flow cytometry method (reference value: 0.7%); assay type: functional
Hep 3B2 [11] = test: Induction of apoptosis in human Hep3B cells assessed as condensed nuclei at […] incubated for 48 hrs by Hoechst33258 staining based fluorescence microscopy; assay type: functional, cell-based
Huh-7 [12] = test: Induction of apoptosis in human Huh-7 cells assessed as fragmented nuclei at upto […] incubated for 48 hrs by Hoechst33258 staining based fluorescence microscopy; assay type: functional, cell-based
Huh-7 [13] = test: Induction of apoptosis in human Huh-7 cells assessed as viable cells at 25 nM measured after 48 hrs in presence of z-VAD-FMK by annexin V-FITC/Propidium iodide staining based flow cytometric analysis (reference value: 91.7%); assay type: functional; conditions: read-out: Activity
Huh-7 [14] = test: Induction of autophagic flux in human Huh-7 cells assessed as increase in intracellular vesicles at 25 nM incubated for 48 hrs by transmission electron microscopic analysis; assay type: functional, cell-based
Huh-7 [15] = test: Induction of autophagic flux in human Huh-7 cells assessed as increase in LC3-I expression at upto 25 nM incubated for 48 hrs by Western blot analysis; assay type: functional, cell-based
Huh-7 [16] = test: Induction of autophagic flux in human Huh-7 cells assessed as decrease in p62 expression at upto 25 nM incubated for 48 hrs by Western blot analysis; assay type: functional, cell-based
Hep 3B2 [17] = test: Induction of apoptosis in human Hep3B cells assessed as late apoptotic cells at 25 nM incubated for 48 hrs by Annexin V-FITC/PI staining based flow cytometry method (reference value: 3.5%); assay type: functional
Hep 3B2 [18] = test: Induction of apoptosis in human Hep3B cells assessed as necrotic cells at 25 nM incubated for 48 hrs by Annexin V-FITC/PI staining based flow cytometry method (reference value: 1.2%); assay type: functional
Hep 3B2 [19] = test: Induction of apoptosis in human Hep3B cells assessed as increase in PARP level at 25 nM incubated for 48 hrs in presence of chloroquine by immunoblot analysis; assay type: functional, cell-based
Hep 3B2 [20] = test: Induction of apoptosis in human Hep3B cells assessed as increase in caspase-3 level at 25 nM incubated for 48 hrs in presence of chloroquine by immunoblot analysis; assay type: functional, cell-based
Hep 3B2 [21] = test: Induction of apoptosis in human Hep3B cells assessed as increase in cleaved caspase-3 level at 25 nM incubated for 48 hrs in presence of chloroquine by immunoblot analysis; assay type: functional, cell-based
Huh-7 [22] = test: Induction of apoptosis in human Huh-7 cells assessed as increase in cleaved caspase-3 level at 25 nM incubated for 48 hrs in presence of chloroquine by immunoblot analysis; assay type: functional, cell-based
Huh-7 [23] = test: Induction of apoptosis in human Huh-7 cells assessed as increase in cleaved bax level at 25 nM incubated for 48 hrs in presence of chloroquine by immunoblot analysis; assay type: functional, cell-based
Hep 3B2 [24] = test: Induction of apoptosis in human Hep3B cells assessed as early apoptotic cells at 25 nM incubated for 48 hrs in presence of 4,6-dimorpholino-N-(4-nitrophenyl)-1,3,5-triazin-2-amine by Annexin V-FITC/PI staining based flow cytometry method (reference value: 1.3%); assay type: functional
Hep 3B2 [25] = test: Induction of apoptosis in human Hep3B cells assessed as late apoptotic cells at 25 nM incubated for 48 hrs in presence of 4,6-dimorpholino-N-(4-nitrophenyl)-1,3,5-triazin-2-amine by Annexin V-FITC/PI staining based flow cytometry method (reference value: 2.2%); assay type: functional
Huh-7 [26] = test: Induction of apoptosis in human Huh-7 cells assessed as early apoptotic cells at 25 nM incubated for 48 hrs in presence of 4,6-dimorpholino-N-(4-nitrophenyl)-1,3,5-triazin-2-amine by Annexin V-FITC/PI staining based flow cytometry method (reference value: 4.3%); assay type: functional
Hep 3B2 [27] = test: Induction of apoptosis in human Hep3B cells assessed as reduction in bcl-2 level […] incubated for 48 hrs in presence of 4,6-dimorpholino-N-(4-nitrophenyl)-1,3,5-triazin-2-amine by immunoblot analysis; assay type: functional, cell-based
Huh-7 [28] = test: Induction of apoptosis in human Huh-7 cells assessed as upregulation of caspase-3 level […] incubated for 48 hrs in presence of 4,6-dimorpholino-N-(4-nitrophenyl)-1,3,5-triazin-2-amine by immunoblot analysis; assay type: functional, cell-based
Hep 3B2 [29] = test: Induction of autophagy in human Hep3B cells assessed as reduction in mTOR phosphorylation level incubated for 48 hrs by immunoblot method; assay type: functional, cell-based; conditions: dose 0-25 nM
Huh-7 [30] = test: Induction of autophagy in human Huh-7 cells assessed as reduction in mTOR phosphorylation level incubated for 48 hrs by immunoblot method; assay type: functional, cell-based; conditions: dose 0-25 nM
Hep 3B2 [31] = test: Induction of autophagy in human Hep3B cells harbouring mCherry-egfp-LC3 assessed as reduction in red puncta ratio at 25 nM incubated for 15 mins in presence of 4,6-dimorpholino-N-(4-nitrophenyl)-1,3,5-triazin-2-amine by laser scanning confocal microscopic analysis; assay type: functional, cell-based
Huh-7 [32] = test: Induction of autophagy in human Huh-7 cells assessed as restoration of mTOR phosphorylation expression at 25 uM incubated for 48 hrs in presence of 4,6-dimorpholino-N-(4-nitrophenyl)-1,3,5-triazin-2-amine by immunoblot analysis; assay type: functional, cell-based
Hep 3B2 [33] = test: Antitumor activity against human Hep3B cells xenografted in nude mouse model assessed as reduction in Ki-67 index at 5 mg/kg,ip administered every second day for 3 weeks by immunohistochemical analysis; assay type: functional, organism-based

Question: What does the source list for `CCN(CC)CCCC(C)Nc1ccnc2cc(Cl)ccc12` (stereo not drawn) [CHLOROQUINE]?
Answer: viability at 0.01 µM (Huh-7 [1]): 65.4%; Activity (Huh-7 [2]): 12.1%; Activity (Hep 3B2 [3]): Active; Activity (Hep 3B2 [4]): Active; Activity (Huh-7 [5]): Active

Question: For `C[C@]12CC[C@H](O)C[C@H]1CC[C@@H]1[C@@H]2[C@H](O)C[C@]2(C)[C@@H](c3ccc(=O)oc3)CC[C@]12O` [GAMABUFOTALIN], which Activity (Huh-7 [6]) is on record?
Answer: Active

Question: And the Activity (Hep 3B2 [7])?
Answer: 4.5%

Question: And the Activity (Hep 3B2 [8])?
Answer: 5.2%

Question: What about the Activity (Huh-7 [9]) of the same compound?
Answer: 67.6%

Question: And the Activity (Huh-7 [10])?
Answer: 4.9%

Question: And the Activity (Hep 3B2 [11])?
Answer: Active

Question: And the Activity (Huh-7 [12])?
Answer: Active

Question: And the viability at 0.025 µM (Huh-7 [13])?
Answer: 89%

Question: And the Activity (Huh-7 [14])?
Answer: Active

Question: And the Activity (Huh-7 [15])?
Answer: Active

Question: What about the Activity (Huh-7 [16]) of the same compound?
Answer: Active

Question: What about the Activity (Hep 3B2 [17]) of the same compound?
Answer: 13.7%

Question: What about the Activity (Hep 3B2 [18]) of the same compound?
Answer: 0.6%

Question: And the Activity (Hep 3B2 [19])?
Answer: Active

Question: What about the Activity (Hep 3B2 [20]) of the same compound?
Answer: Active

Question: What about the Activity (Hep 3B2 [21]) of the same compound?
Answer: Active

Question: And the Activity (Huh-7 [22])?
Answer: Active

Question: And the Activity (Huh-7 [23])?
Answer: Active

Question: And the Activity (Hep 3B2 [24])?
Answer: 10.9%

Question: What about the Activity (Hep 3B2 [25]) of the same compound?
Answer: 20.2%

Question: What about the Activity (Huh-7 [26]) of the same compound?
Answer: 14.9%

Question: And the Activity (Hep 3B2 [27])?
Answer: Active

Question: What about the Activity (Huh-7 [28]) of the same compound?
Answer: Active

Question: And the Activity (Hep 3B2 [29])?
Answer: Dose-Dependent Effect

Question: What about the Activity (Huh-7 [30]) of the same compound?
Answer: Dose-Dependent Effect

Question: What about the Activity (Hep 3B2 [31]) of the same compound?
Answer: Active

Question: What about the Activity (Huh-7 [32]) of the same compound?
Answer: Active

Question: And the Activity (Hep 3B2 [33])?
Answer: Active
